The values below come from article PMC6298744 (Biochemical pharmacology, 2018).

Molecules are shown by their SMILES. Where a name gives a salt, the structure may show the parent alone. Read-outs that look alike come from different tables or passages of the source.

The target of experiment [1] is T1, hNET (Homo sapiens, UniProt P23975). As to the kind of experiment: cell-based.
Experiment [2] deals with T2, hDAT (Homo sapiens, UniProt Q01959). The experiment in a line: Inhibition of [^3H]DA uptake by HEK-hDAT cells. It counts as cell-based.
T2 sequence (Q01959 whole entry): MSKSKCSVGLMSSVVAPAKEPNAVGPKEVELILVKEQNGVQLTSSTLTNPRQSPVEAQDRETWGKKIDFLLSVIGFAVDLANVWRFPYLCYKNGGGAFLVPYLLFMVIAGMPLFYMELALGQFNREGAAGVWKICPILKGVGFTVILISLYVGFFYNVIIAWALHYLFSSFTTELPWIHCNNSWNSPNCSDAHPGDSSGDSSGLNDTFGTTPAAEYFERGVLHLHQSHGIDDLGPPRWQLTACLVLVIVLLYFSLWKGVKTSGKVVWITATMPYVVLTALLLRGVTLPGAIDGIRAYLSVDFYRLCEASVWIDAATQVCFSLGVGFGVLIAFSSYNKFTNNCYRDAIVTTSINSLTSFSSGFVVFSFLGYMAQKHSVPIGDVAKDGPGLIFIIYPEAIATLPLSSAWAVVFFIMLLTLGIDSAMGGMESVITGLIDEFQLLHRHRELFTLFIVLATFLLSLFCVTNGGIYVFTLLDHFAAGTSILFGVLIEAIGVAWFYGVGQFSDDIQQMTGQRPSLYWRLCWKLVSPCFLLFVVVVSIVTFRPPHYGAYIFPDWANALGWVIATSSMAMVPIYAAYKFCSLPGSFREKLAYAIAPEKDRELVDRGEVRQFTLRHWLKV
Experiment [3] deals with T2, hDAT. As to the kind of experiment: Inhibition of [^125I]RTI-55 binding to hDAT.
In experiment [4] the target is T1, hNET. As to the kind of experiment: biochemical. Type of experiment: binding.
For experiment [5], the target named is T3, hSERT (Homo sapiens, UniProt P31645). As to the kind of experiment: Inhibition of [^125I]RTI-55 binding to hSERT.
T3 sequence (P31645 whole entry): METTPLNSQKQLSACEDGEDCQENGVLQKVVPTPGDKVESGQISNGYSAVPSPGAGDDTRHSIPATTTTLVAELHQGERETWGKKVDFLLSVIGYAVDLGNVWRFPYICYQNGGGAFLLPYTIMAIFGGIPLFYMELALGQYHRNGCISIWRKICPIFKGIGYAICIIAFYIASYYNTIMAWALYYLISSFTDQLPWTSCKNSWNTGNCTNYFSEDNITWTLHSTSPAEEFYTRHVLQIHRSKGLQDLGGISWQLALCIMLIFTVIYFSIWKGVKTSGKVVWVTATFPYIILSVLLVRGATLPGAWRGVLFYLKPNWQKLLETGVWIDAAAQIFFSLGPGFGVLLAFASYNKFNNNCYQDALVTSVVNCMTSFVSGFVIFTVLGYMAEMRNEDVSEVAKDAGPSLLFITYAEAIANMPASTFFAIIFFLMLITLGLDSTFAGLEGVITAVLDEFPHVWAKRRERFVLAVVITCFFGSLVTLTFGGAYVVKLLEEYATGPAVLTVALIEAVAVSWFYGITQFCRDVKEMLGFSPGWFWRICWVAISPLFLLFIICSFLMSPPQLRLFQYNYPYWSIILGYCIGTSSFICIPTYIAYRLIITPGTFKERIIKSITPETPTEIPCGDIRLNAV
In experiment [6] the target is T3, hSERT. The experiment in a line: Inhibition of [^3H]5-HT uptake by HEK-hSERT cells. Type of experiment: cell-based.
In experiment [7] the target is T2, hDAT. As to the kind of experiment: Release of preloaded [^3H]DA from HEK-hDAT cells. It counts as cell-based. The note with it: for EC50: read-out: Drug-induced release of [^3H]neurotransmitter EC50, hDAT [^3H]DA, mean ± sem, HEK-hDAT; for % maximum release, hDAT [^3H]DA: relative to maximum release induced by METH (1–10 μM).
Experiment [8] deals with T3, hSERT. The experiment in a line: Release of preloaded [^3H]5-HT from HEK-hSERT cells. Type of experiment: cell-based. As to conditions: for EC50: read-out: Drug-induced release of [^3H]neurotransmitter EC50, hSERT [^3H]5-HT, mean ± sem, HEK-hSERT; for % maximum release, hSERT [^3H]5-HT: relative to maximum release induced by METH (0.3–1 mM).
Experiment [9] deals with T1, hNET. As to the kind of experiment: Release of preloaded [^3H]NE from HEK-hNET cells. The note with it: for EC50: read-out: Drug-induced release of [^3H]neurotransmitter EC50, hNET [^3H]NE, mean ± sem, HEK-hNET; for % maximum release, hNET [^3H]NE: relative to maximum release induced by METH (0.3–1 μM). It counts as cell-based.
Another experiment deals with 5-HT2A receptor (Homo sapiens, UniProt P28223). As to the kind of experiment: cell-based. It counts as cell-based.
Chain of 5-HT2A receptor (P28223 whole entry): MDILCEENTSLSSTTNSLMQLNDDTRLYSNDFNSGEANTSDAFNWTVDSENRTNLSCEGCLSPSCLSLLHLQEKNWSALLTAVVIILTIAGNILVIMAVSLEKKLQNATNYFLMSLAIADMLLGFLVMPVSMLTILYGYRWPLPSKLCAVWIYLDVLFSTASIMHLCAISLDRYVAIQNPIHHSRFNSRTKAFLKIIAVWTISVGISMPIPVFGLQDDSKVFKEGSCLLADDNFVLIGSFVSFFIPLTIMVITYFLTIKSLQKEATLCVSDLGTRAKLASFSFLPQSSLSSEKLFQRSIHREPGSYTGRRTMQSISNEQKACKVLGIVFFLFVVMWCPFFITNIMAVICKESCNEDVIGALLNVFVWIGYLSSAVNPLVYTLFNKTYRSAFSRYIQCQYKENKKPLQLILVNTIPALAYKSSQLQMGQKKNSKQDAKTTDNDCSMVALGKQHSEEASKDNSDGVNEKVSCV
In a further experiment the target is 5-HT2B receptor (Homo sapiens, UniProt P41595). The experiment in a line: 5-HT2B receptor inositol monophosphate. Type of experiment: cell-based. As to conditions: normalized to the maximal stimulation by 5-HT.
Chain of 5-HT2B receptor (P41595 whole entry): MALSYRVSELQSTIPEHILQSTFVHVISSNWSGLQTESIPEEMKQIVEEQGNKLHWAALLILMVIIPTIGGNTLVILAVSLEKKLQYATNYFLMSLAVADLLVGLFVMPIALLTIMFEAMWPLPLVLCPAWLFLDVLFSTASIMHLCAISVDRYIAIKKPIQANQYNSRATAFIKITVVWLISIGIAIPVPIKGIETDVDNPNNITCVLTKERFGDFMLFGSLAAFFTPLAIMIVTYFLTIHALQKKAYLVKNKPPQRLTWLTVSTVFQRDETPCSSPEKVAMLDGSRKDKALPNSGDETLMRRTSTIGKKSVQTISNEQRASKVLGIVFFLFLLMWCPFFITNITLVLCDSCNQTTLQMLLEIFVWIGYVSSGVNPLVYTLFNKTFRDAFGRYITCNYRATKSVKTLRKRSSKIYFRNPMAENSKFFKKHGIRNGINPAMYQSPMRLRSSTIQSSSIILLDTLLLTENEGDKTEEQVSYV

T1 sequence (P23975 whole entry): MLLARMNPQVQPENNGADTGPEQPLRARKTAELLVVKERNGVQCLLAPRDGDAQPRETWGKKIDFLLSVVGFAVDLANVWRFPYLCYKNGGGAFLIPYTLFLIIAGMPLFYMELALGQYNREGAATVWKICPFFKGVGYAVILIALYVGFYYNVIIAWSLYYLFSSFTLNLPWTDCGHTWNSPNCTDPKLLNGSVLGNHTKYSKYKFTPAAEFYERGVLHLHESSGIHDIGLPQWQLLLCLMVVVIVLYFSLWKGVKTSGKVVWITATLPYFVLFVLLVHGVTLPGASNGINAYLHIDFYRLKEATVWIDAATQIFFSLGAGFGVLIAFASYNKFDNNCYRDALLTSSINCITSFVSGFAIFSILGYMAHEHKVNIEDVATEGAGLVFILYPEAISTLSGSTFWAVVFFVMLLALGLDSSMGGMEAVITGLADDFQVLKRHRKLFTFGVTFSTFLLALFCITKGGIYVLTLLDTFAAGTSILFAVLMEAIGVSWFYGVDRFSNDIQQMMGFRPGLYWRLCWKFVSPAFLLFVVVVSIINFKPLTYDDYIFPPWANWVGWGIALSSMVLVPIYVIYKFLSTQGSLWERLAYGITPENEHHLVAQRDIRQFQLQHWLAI

On to `NCCc1c[nH]c2ccc(O)cc12` [5-HT, Serotonin hydrochloride, reference compound], for which the IC50 amounted to 7.2 ± 2.5 µM at hNET [1] and 3.36 ± 0.32 µM against hDAT [2]. In addition, the inhibition constant Ki on hDAT [3] turned out to be 375 ± 83 µM; at hNET [4], 392 ± 10 µM.
Turning to `OC1(c2ccc(Cl)cc2)c2ccccc2C2=NCCN21` (stereo not shown) [Mazindol, reference compound], the IC50 at hNET [1] came out at 0.0011 ± 0.0003 µM; against hSERT [6] it was 69 ± 12 nM. Moreover, the inhibition constant (Ki) at hSERT [5] worked out at 0.127 ± 0.039 µM; at hNET [4], 0.0116 ± 0.0035 µM.
Consider `CN[C@@H](C)Cc1ccccc1` [METH, (S+)methamphetamine, reference compound], for which, on hDAT [7], the EC50 turned out to be 430 ± 150 nM and the “% maximum release, hDAT [^3H]DA” value turned out to be 104.1 ± 1.3%. On hSERT [8], the EC50 came out at 27.5 ± 7 µM and the “% maximum release, hSERT [^3H]5-HT” value stood at 104.9 ± 6.8%. In addition, on hNET [9], the 50% effective concentration (EC50) was determined as 152 ± 56 nM and the “% maximum release, hNET [^3H]NE” value came to 106.7 ± 3.3%.
In the case of `CCN(CC)C(=O)[C@@H]1C=C2c3cccc4[nH]cc(c34)C[C@H]2N(C)C1` [LSD, (+)lysergic acid diethylamide, reference compound], at 5-HT2A receptor, the “% maximum stimulation, 5-HT2A stimulation of IP-1 formation” value is listed as 0.706 ± 0.065 (3) 64.5 ± 6.3%. For the same compound, the “% maximum stimulation, 5-HT2B stimulation of IP-1 formation” value at 5-HT2B receptor was 23.3 ± 4.9%. In addition, the EC50 at hDAT [7] is more than 54000 nM; at hSERT [8], more than 100 µM; on hNET [9], more than 91000 nM. For the same compound, on hDAT [7], the “% maximum release, hDAT [^3H]DA” value came out at 7.4 ± 4.7%. Moreover, the Ki at hSERT [5] (read-out: Inhibition of [^125I]RTI-55 binding Ki, hSERT, mean ± sem, HEK-hSERT) was 62.9 ± 5 µM; on hDAT [3] (read-out: Inhibition of [^125I]RTI-55 binding Ki, hDAT, mean ± sem, HEK-hDAT), more than 100 µM; at hNET [4] (read-out: Inhibition of [^125I]RTI-55 binding Ki, hNET, mean ± sem, HEK-hNET), 76.9 ± 8.5 µM. For the same compound, the “% maximum release, hSERT [^3H]5-HT” value on hSERT [8] is reported as −0.59 ± 0.55%. Besides, on hNET [9], the “% maximum release, hNET [^3H]NE” value came out at 35.7 ± 4.2%.
